# Measured values reported in article PMC6352943, “Novel pyrazolo[3,4-d]pyrimidines: design, synthesis, anticancer activity, dual EGFR/ErbB2 receptor tyrosine kinases inhibitory activity, effects on cell cycle profile and caspase-3-mediated apoptosis” (Journal of Enzyme Inhibition and Medicinal Chemistry, 2019).
# Tests used:
# Experiment in all cases: NCI 60 cell line single dose screen (SRB)
# Assay type in all cases: cell-based
# [1] = system: IGROV1; settings: Homo sapiens, IGROV-1; IGROV1 (ovarian cancer), single dose 10^−5 M, 48 h; read-out: Growth inhibition percentage
# Method: (§1) Anticancer activity screening of the newly synthesised compounds was measured in vitro utilising 60 different human tumour cell lines provided by US National Cancer Institute according to previously reported standard procedure[27–29] as follows: Cells are inoculated into 96-well microtitre plates in 100 ml. After cell inoculation, the microtitre plates are incubated at 37 °C, 5% CO2, 95% air and 100% relative humidity for 24 h prior to addition of experimental compounds. After 24 h, two plates of each cell line are fixed in situ with TCA, to represent a measurement of the cell population for each cell line at the time of drug addition (Tz). Experimental compounds are solubilised in dimethyl sulphoxide at 400-fold the desired final maximum test concentration and stored frozen prior to use. At the time of compound addition, an aliquot of frozen concentrate is thawed and diluted to twice the desired final maximum test concentration with complete medium containing […] gentamicin. Aliquots of […] of the compounds dilutions are added to the appropriate microtitre wells already containing 100 ml of medium, resulting in the required final compound concentration. Following compound addition, the plates are incubated for an additional 48 h at 37 °C, 5% CO2, 95% air, and 100% relative humidity. For adherent cells, the assay is terminated by the addition of cold trichloroacetic acid (TCA). Cells are fixed in situ by the gentle addition of 50 ml of cold 50% (w/v) TCA (final concentration, 10% TCA) and incubated for 60 min at 4 °C. The supernatant is discarded, and the plates are washed five times with tap water and air-dried. Sulphorhodamine B (SRB) solution (100 ml) at 0.4% (w/v) in 1% acetic acid is added to each well, and plates are incubated for 10 min at room temperature. After staining, unbound dye is removed by washing five times with 1% acetic acid and the plates are air-dried. Bound stain is subsequently solubilised with 10 mM trizma base, and the absorbance is read on an automated plate reader at a wavelength of 515 nm. For suspension cells, the methodology is the same except that the assay is terminated by fixing settled cells at the bottom of the wells by gently adding 50 ml of 80% TCA (final concentration, 16% TCA). Using the absorbance measurements [time zero, (Tz), control growth, (C), and test growth in the presence of compound (Ti)], the percentage growth is calculated for each compound. Percentage growth inhibition is calculated as: [(Ti – Tz)/(C – Tz)] x 100 for concentrations for which Ti >/=Tz. [(Ti – Tz)/Tz] x 100 for concentrations for which Ti < Tz.
# [2] = system: HT29; settings: Homo sapiens, HT-29; HT29 (colon cancer), single dose 10^−5 M, 48 h; read-out: Growth inhibition percentage
# Method: as §1
# [3] = system: K-562; settings: Homo sapiens, K562; K-562 (leukemia), single dose 10^−5 M, 48 h; read-out: Growth inhibition percentage
# Method: as §1
# [4] = system: EKVX; settings: Homo sapiens; EKVX (non-small cell lung cancer), single dose 10^−5 M, 48 h; read-out: Growth inhibition percentage
# Method: as §1
# [5] = system: SNB-75; settings: Homo sapiens; SNB-75 (CNS cancer), single dose 10^−5 M, 48 h; read-out: Growth inhibition percentage
# Method: as §1
# [6] = system: NCI/ADR-RES; settings: Homo sapiens; NCI/ADR-RES (ovarian cancer), single dose 10^−5 M, 48 h; read-out: Growth inhibition percentage
# Method: as §1
# [7] = system: HOP-92; settings: Homo sapiens; HOP-92 (non-small cell lung cancer), single dose 10^−5 M, 48 h; read-out: Growth inhibition percentage
# Method: as §1
# [8] = system: RPMI-8226; settings: Homo sapiens; RPMI-8226 (leukemia), single dose 10^−5 M, 48 h; read-out: Growth inhibition percentage
# Method: as §1
# [9] = system: HL-60(TB); settings: Homo sapiens; HL-60(TB) (leukemia), single dose 10^−5 M, 48 h; read-out: Growth inhibition percentage
# Method: as §1
# [10] = system: SK-MEL-28; settings: Homo sapiens; SK-MEL-28 (melanoma), single dose 10^−5 M, 48 h; read-out: Growth inhibition percentage
# Method: as §1
# [11] = system: TK-10; settings: Homo sapiens; TK-10 (renal cancer), single dose 10^−5 M, 48 h; read-out: Growth inhibition percentage
# Method: as §1
# [12] = system: SF-268; settings: Homo sapiens; SF-268 (CNS cancer), single dose 10^−5 M, 48 h; read-out: Growth inhibition percentage
# Method: as §1
# [13] = system: DU-145; settings: Homo sapiens; DU-145 (prostate cancer), single dose 10^−5 M, 48 h; read-out: Growth inhibition percentage
# Method: as §1
# [14] = system: NCI-H522; settings: Homo sapiens; NCI-H522 (non-small cell lung cancer), single dose 10^−5 M, 48 h; read-out: Growth inhibition percentage
# Method: as §1
# [15] = system: SK-MEL-2; settings: Homo sapiens; SK-MEL-2 (melanoma), single dose 10^−5 M, 48 h; read-out: Growth inhibition percentage
# Method: as §1
# [16] = system: UACC-257; settings: Homo sapiens; UACC-257 (melanoma), single dose 10^−5 M, 48 h; read-out: Growth inhibition percentage
# Method: as §1
# [17] = system: CCRF-CEM; settings: Homo sapiens; CCRF-CEM (leukemia), single dose 10^−5 M, 48 h; read-out: Growth inhibition percentage
# Method: as §1
# [18] = system: OVCAR-3; settings: Homo sapiens; OVCAR-3 (ovarian cancer), single dose 10^−5 M, 48 h; read-out: Growth inhibition percentage
# Method: as §1
# [19] = system: ACHN; settings: Homo sapiens; ACHN (renal cancer), single dose 10^−5 M, 48 h; read-out: Growth inhibition percentage
# Method: as §1
# [20] = system: HCC-2998; settings: Homo sapiens; HCC-2998 (colon cancer), single dose 10^−5 M, 48 h; read-out: Growth inhibition percentage
# Method: as §1
# [21] = system: A549/ATCC; settings: Homo sapiens; A549/ATCC (non-small cell lung cancer), single dose 10^−5 M, 48 h; read-out: Growth inhibition percentage
# Method: as §1
SMILES,inhibition at 10 µM [1] [%],inhibition at 10 µM [2] [%],inhibition at 10 µM [3] [%],inhibition at 10 µM [4] [%],inhibition at 10 µM [5] [%],inhibition at 10 µM [6] [%],inhibition at 10 µM [7] [%],inhibition at 10 µM [8] [%],inhibition at 10 µM [9] [%],inhibition at 10 µM [10] [%],inhibition at 10 µM [11] [%],inhibition at 10 µM [12] [%],inhibition at 10 µM [13] [%],inhibition at 10 µM [14] [%],inhibition at 10 µM [15] [%],inhibition at 10 µM [16] [%],inhibition at 10 µM [17] [%],inhibition at 10 µM [18] [%],inhibition at 10 µM [19] [%],inhibition at 10 µM [20] [%],further results
"COc1ccc(N2CCN(c3ncnc4c3c(C)nn4-c3ccc(F)cc3)CC2)cc1 [Compound 8d, 1–(4-Fluorophenyl)-4–(4-(4-methoxyphenyl)piperazin-1-yl)-3-methyl-1H-pyrazolo[3,4-d]pyrimidine]",9.45,-1.26,-4,7.21,5.93,-3.7,4.73,6.45,11.8,-8.74,-48,-2.9,-11.2,3.59,-1.69,-6.35,0.86,-8.47,-0.34,3.59,inhibition at 10 µM [21]: -4.08%
"Cc1nn(-c2ccc(F)cc2)c2ncnc(NN)c12 [Compound 9, 1–(4-Fluorophenyl)-4-hydrazinyl-3-methyl-1H-pyrazolo[3,4-d]-pyrimidine]",23.5,1.62,-3.06,17,-0.56,3.79,13.4,-6.21,11.8,2.1,-51.2,25.6,-0.84,10.3,18.3,-3.21,30.9,32.2,2.07,5.1,inhibition at 10 µM [21]: -5.98%
"COc1cc(C=NNc2ncnc3c2c(C)nn3-c2ccc(F)cc2)ccc1O [Compound 10b, 1–(4-Fluorophenyl)-4–(2-(4-hydroxy-3-methoxybenzylidene)-hydrazinyl)-3-methyl-1H-pyrazolo[3,4-d]pyrimidine]",20.6,7.7,24.2,12.4,17.5,4.3,39.5,7.52,1.69,-7.04,11.3,29,12.4,27.1,10.2,-14.1,38,24.2,7.34,0.27,inhibition at 10 µM [21]: 2.36%
"COc1cc(C=NNc2ncnc3c2c(C)nn3-c2ccc(F)cc2)cc(OC)c1OC [Compound 10c, 1–(4-Fluorophenyl)-3-methyl-4–(2-(3,4,5-trimethoxybenzylidene)-hydrazinyl)-1H-pyrazolo[3,4-d]pyrimidine]",26.6,8.83,-3.02,10,19.5,-2.25,40.4,1.29,-4.11,1.3,-36.3,6.35,-4.94,7.26,-1.74,0.35,4.81,-0.3,4.01,2.74,inhibition at 10 µM [21]: -0.67%
